Reference: article PMC10646112, “Mechanistic insights into glycoside 3-oxidases involved in C-glycoside metabolism in soil microorganisms” (Nature Communications, 2023)

What was measured:
[1] = target: T1, PsG3Ox (Pseudarthrobacter siccitolerans, UniProt A0A024H8G7); assay: tryptophan fluorescence quenching titration of apo-enzyme; crystal structure; type: biochemical; design: gene ARTSIC4J27_4061; Apo-PsG3Ox
[2] = target: T1, PsG3Ox; assay: inhibition of D-Glc oxidation, steady-state kinetics (Lineweaver-Burk, secondary plot of slopes); type: biochemical; design: gene ARTSIC4J27_4061

T1 sequence (A0A024H8G7 1-519): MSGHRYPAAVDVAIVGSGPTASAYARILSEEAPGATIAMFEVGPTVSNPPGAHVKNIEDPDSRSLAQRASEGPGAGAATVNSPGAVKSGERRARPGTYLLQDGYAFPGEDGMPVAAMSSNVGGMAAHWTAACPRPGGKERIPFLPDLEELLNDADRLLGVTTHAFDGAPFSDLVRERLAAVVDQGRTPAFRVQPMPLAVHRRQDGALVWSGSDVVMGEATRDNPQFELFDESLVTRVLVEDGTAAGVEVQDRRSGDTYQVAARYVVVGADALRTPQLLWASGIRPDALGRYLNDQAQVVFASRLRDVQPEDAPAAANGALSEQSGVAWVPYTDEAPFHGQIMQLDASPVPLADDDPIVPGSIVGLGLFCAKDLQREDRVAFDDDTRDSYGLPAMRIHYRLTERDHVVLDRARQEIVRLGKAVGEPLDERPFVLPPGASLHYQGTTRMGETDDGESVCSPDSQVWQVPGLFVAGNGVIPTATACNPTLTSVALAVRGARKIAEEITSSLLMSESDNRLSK

| SMILES | Kd [1] [µM] | Ki [2] [µM] |
| --- | --- | --- |
| Cc1cc2nc3c(=O)[nH]c(=O)nc-3n(C[C@H](O)[C@H](O)[C@H](O)COP(=O)(O)OP(=O)(O)OC[C@H]3O[C@@H](n4cnc5c(N)ncnc54)[C@H](O)[C@@H]3O)c2cc1C [FAD] | 0.2 |  |
| C[C@@H]1O[C@@H](OC[C@H]2O[C@@H](Oc3c(-c4ccc(O)c(O)c4)oc4cc(O)cc(O)c4c3=O)[C@H](O)[C@@H](O)[C@@H]2O)[C@H](O)[C@H](O)[C@H]1O [rutin] |  | 100 |
